The record followed here is PMC11413853, “Discovery of VU6007496: Challenges in the Development of an M1 Positive Allosteric Modulator Backup Candidate” (ACS Chemical Neuroscience, 2024).

One data set relates to Phorbol Ester. The experiment in a line: Eurofins radioligand binding. More on the design: species or system Mouse. As to conditions: specific binding.
A further data set concerns Adrenergic α1D. Kind of data set: Eurofins radioligand binding. Further details: species or system Human. As to conditions: specific binding.
For data set [1], the system named is layer V medial prefrontal cortex (mPFC). Kind of data set: Field electrophysiology, layer V medial prefrontal cortex slices. More on the design: species or system mouse. As to conditions: 3 μM bath application 20 min; recorded layer V, stimulation layer II/III. As to the method: PAMs 11 and 12 were next evaluated in our rat IV plasma: brain level cassette paradigm (0.25 mg/kg compound, 1 mg/kg total dose, 10.1% EtOH:40.4% PEG400:49.5% DMSO) sampled at a set 15 min time point to assess CNS penetration. […] As mice are the most sensitive species to cholinergic mechanisms,[11],[13],[23],[24] we placed a high-throughput phenotypic seizure liability assay into the work-flow in which potent ago-PAMs, such as 2–5,[8]−[15] display robust Racine scale 4/5 behavioral convulsions that develop within minutes of dosing and last for the 3 h duration of the study. […] In parallel, we performed electrophysiology studies in mouse native tissue layer V medial prefrontal cortex (mPFC). […]
Rats were habituated for 10 min for 2 consecutive days in an empty novel object recognition (NOR) arena consisting of dark-colored plexiglass box (40 × 64 × 33 cm3). […] The rats were then returned to the arena in which one of the previously exposed (familiar) objects was replaced by a novel object and were video recorded for 5 min while they explored the two objects. Time spent exploring each object was scored by an observer blinded to the experimental conditions and the recognition index was calculated as [(time spent exploring novel object) – (time spent exploring familiar object)]/total time exploring objects. […]

The test system of data set [2] is Transporter, Serotonin (SERT). Kind of data set: Eurofins radioligand binding. As to conditions: specific binding. Further details: species or system Human.
In the next data set the test system is Muscarinic M1. The experiment in a line: Eurofins radioligand binding. Further details: species or system Human. As to conditions: specific binding.
In the next data set the test system is Serotonin (5-HT2B). Kind of data set: Eurofins radioligand binding. Further details: species or system Human. As to conditions: specific binding.
Data set [3] concerns Transporter, Dopamine (DAT). The experiment in a line: Eurofins radioligand binding. More on the design: species or system Human. As to conditions: specific binding.
A further data set deals with CYP2B6. Kind of data set: CYP induction (mRNA) in cryopreserved human hepatocytes, CYP2B6. As to conditions: three donors. It counts as in vitro ADME. The source says: To advance 11 as a candidate and into IND-enabling studies, we next needed to better understand its CYP profile to minimize drug–drug interactions in the clinic. […] We were pleased to see the contribution of another CYP beyond 3A4 for the metabolism of 11.[21] In parallel, we investigated the ability of PAM 11 to induce the expression of CYP450s (measuring mRNA) in cryopreserved human hepatocytes from three separate donors.

A further data set has as its system Adenosine A3. Kind of data set: Eurofins radioligand binding. More on the design: species or system Human. As to conditions: specific binding.
In data set [4] the test system is Nicotinic Acetylcholine α1, Bungarotoxin. Kind of data set: Eurofins radioligand binding. Further details: species or system Human. As to conditions: specific binding.
The next data set deals with Adenosine A1. The experiment in a line: Eurofins radioligand binding. More on the design: species or system Human. As to conditions: specific binding.
Another data set relates to T1, hERG.
T1 construct: Charles River
Kind of data set: Ion channel current (Charles River Study 200609.WVN). As to conditions: human, n 3. It counts as cell-based. The source says:
Table S2. Effects of VU6007496 on Ion Channel Current (Charles River Study 200609.WVN)
Ion Channel Conc Mean % Standard Standard n Individual Data
(μM) Inhibition Deviation Error Points (% Inhibition)

Data set [5] deals with Epidermal Growth Factor (EGF). The experiment in a line: Eurofins radioligand binding. More on the design: species or system Human. As to conditions: specific binding.
In data set [6] the test system is Nicotinic Acetylcholine α3β4. The experiment in a line: Eurofins radioligand binding. More on the design: species or system Human. As to conditions: specific binding.
For a further data set, the system named is Glutamate, Kainate. The experiment in a line: Eurofins radioligand binding. More on the design: species or system Rat. As to conditions: specific binding.
Data set [7] can be described thus: Rat satellite PK study, 3 mg/kg p.o. It counts as in vivo. As to conditions: 3 mg/kg p.o. (NOR MED). The source says:
Historically, our PK/PD for M1 PAMs in NOR has a strong correlation with total brain as opposed to unbound levels, with MEDs typically 0.25 to 0.4 of the rat EC50.[21] This may be due to higher endogenous cholinergic tone in healthy animals, and the in vitro PAM EC50s being derived from an arbitrarily selected EC20 concentration of ACh as a subthreshold value.

The subject of data set [8] is Calcium Channel L-Type, Benzothiazepine. The experiment in a line: Eurofins radioligand binding. More on the design: species or system Rat. As to conditions: specific binding.
The subject of a further data set is Muscarinic M3. Kind of data set: Eurofins radioligand binding. More on the design: species or system Human. As to conditions: specific binding.
The next data set deals with Thyroid Hormone. Kind of data set: Eurofins radioligand binding. More on the design: species or system Rat. As to conditions: specific binding.
For data set [9], the system named is Leukotriene, Cysteinyl CysLT1. Kind of data set: Eurofins radioligand binding. As to conditions: specific binding. Further details: species or system Human.

“Also recorded” adds a separate entry of the source.

The % Inhibition is the drop in the measured response relative to a control, in per cent. As a reminder, the inhibition is the drop in the measured response relative to a control, in per cent. A lower inhibition goes with a weak effect. `Cn1ccc(-c2ccc(Cc3cc(C(=O)NC4CCOCC4)nc4ccn(C)c34)cc2)n1` [compound 11]: the “% Inhibition at 10 µM” value with Phorbol Ester is -1%; in the data set on Adrenergic α1D, -6%; in data set [2], -7%; in the data set with Muscarinic M1, -8%; in the data set with Serotonin (5-HT2B), 7%; in data set [3], 13%. Further, the “% Inhibition at 10 µM” value with Adenosine A3 is listed as 38%; in [4], -3%; in the data set on Adenosine A1 it was 10%; in data set [5], 5%; in data set [6], 6%; with Glutamate, Kainate it was -19%. Besides, the “% Inhibition at 10 µM” value is recorded as 12% in data set [8], -4% in the data set with Muscarinic M3, 2% with Thyroid Hormone and 3% in data set [9]. The “change in fEPSP slope (long-term depression)” value in [1] was “did not induce significant changes; also recorded: no significant change in fEPSP slope”. Moreover, the “CYP2B6 induction (mRNA)” value in the data set with CYP2B6 is ~8 fold. Moreover, 10 µM produced 2.6% inhibition in the data set on hERG. In [7], this compound registered a total brain concentration of 990 nM. This compound also returned an unbound brain concentration in [7] of 0.0398 µM.
